{CDPI3-SO3} = negatively charged sulfonated CDPI3 minor groove binder; {CDPI4-(SO3)2} = disulfonated CDPI4 minor groove binder; {CDPI3(C)} = code of the source, not defined here; {CDPI3(N)} = code of the source, not defined here
Key:
[1] = tested on: complementary targets that contain A/C mismatch at positions 5, 6, 7 and 8; experiment: Mismatch discrimination of oligonucleotide conjugates 5′-CCAAAATTAC-X^11-3′ hybridized to complementary targets (Example 4); format: binding; conditions: for ΔΔG° between match and mismatch: calculated at 50° C.
Experimental: This example illustrates conjugates of the present invention to perform mismatch discrimination.
Oligonucleotide conjugates 5′-CCAAAATTAC-X^11-3′ (SEQ ID NO:1), where X ^11 is a minor groove binder of FIG. 1, were hybridized to different complementary targets that contain A/C mismatch at positions 5, 6, 7 and 8, relative to the attached minor groove binder.
The relative free energy difference (ΔΔG°) between match and mismatch at positions 5, 6, 7 and 8 were calculated at 50° C. and are listed in Table below. The ΔΔG° values were calculated as described in U.S. application Ser. No. 09/796,988.
Table of ΔΔG° between match and mismatch calculated at 50° C. for different conjugates.

[2] = tested on: matched complement of ODN # 1; experiment: Thermodynamic properties / mismatch discrimination of 3′-conjugated GGTTTTAATG-X″ sequences (Example 5, FIG. 2); format: binding; conditions: C/A mismatch at positions 5, 6, 7 and 8; 50° C.; PCR buffer; oligonucleotide 5×10^−7M; in words
Experimental: Thermodynamic properties of 3′ -conjugated, where X″ represents the attached minor groove binder which is either CDPI3 (C), CDPI3 (N) and CDPI4-(SO3^−)2. The parameters were determined at PCR buffer, where the oligonucleotide concentration was 5×10^−7M. The sequences below were hybridized to matched complement of ODN # 1. The relative free energy difference (ΔΔG°) between match and mismatch at positions 5, 6, 7 and 8 were calculated at 50° C. and plotted in FIG. 2. The bold C base in the sequences indicates the position of the C/A mismatch.

Substance | ΔΔG° between match and mismatch ([1]; A/C mismatch position 5) [cal/mol] | ΔΔG° between match and mismatch ([1]; A/C mismatch position 6) [cal/mol] | ΔΔG° between match and mismatch ([1]; A/C mismatch position 7) [cal/mol] | ΔΔG° between match and mismatch ([1]; A/C mismatch position 8) [cal/mol] | mismatch discrimination performance versus the other conjugates in the Table ([1]; in words) | mismatch discrimination (ΔΔG° plotted in FIG. 2) [2]
CDPI3—SO3^−: Oligonucleotide conjugate 5′-CCAAAATTAC-X^11-3′, X^11 being the negatively charged minor groove binder CDPI3-SO3^− of FIG. 1 (3' {CDPI3-SO3}, sugars by position and backbone not given here) | 4260 | 5160 | 5550 | 4320 | comparable to the other conjugates | 
CDPI4-(SO3^−)2: 3′-conjugated oligonucleotide GGTTTTAATG-X″, X″ being the attached minor groove binder CDPI4-(SO3^−)2 (3' {CDPI4-(SO3)2}, sugars by position and backbone not given here) |  |  |  |  |  | comparable mismatch discrimination
CDPI3 (N): Oligonucleotide conjugate 5′-CCAAAATTAC-X^11-3′, X^11 being the minor groove binder CDPI3 (N) of FIG. 1 (3' {CDPI3(N)}, sugars by position and backbone not given here) | 5280 | 6320 | 5550 | 5510 |  | 
CDPI3 (C): Oligonucleotide conjugate 5′-CCAAAATTAC-X^11-3′, X^11 being the minor groove binder CDPI3 (C) of FIG. 1 (3' {CDPI3(C)}, sugars by position and backbone not given here) | 4870 | 6220 | 6240 | 5520 |  | 

Source: patent US7851606B2, “Negatively charged minor groove binders” (Elitech Holding B.V., priority 2002, dated 2010)
